The values that follow come from publication PMC5786444, “Structural Basis for the Substrate Inhibition of Proline Utilization A by Proline” (Molecules : A Journal of Synthetic Chemistry and Natural …, 2017).

The target in data set [1] is T1, Proline utilization A (BjPutA) (Bradyrhizobium diazoefficiens, UniProt Q89E26, R456M).
T1 construct: gene putA; BjPutA R456M mutant (GSALDH activity measured)
T1 sequence (Q89E26 1-999 R456M): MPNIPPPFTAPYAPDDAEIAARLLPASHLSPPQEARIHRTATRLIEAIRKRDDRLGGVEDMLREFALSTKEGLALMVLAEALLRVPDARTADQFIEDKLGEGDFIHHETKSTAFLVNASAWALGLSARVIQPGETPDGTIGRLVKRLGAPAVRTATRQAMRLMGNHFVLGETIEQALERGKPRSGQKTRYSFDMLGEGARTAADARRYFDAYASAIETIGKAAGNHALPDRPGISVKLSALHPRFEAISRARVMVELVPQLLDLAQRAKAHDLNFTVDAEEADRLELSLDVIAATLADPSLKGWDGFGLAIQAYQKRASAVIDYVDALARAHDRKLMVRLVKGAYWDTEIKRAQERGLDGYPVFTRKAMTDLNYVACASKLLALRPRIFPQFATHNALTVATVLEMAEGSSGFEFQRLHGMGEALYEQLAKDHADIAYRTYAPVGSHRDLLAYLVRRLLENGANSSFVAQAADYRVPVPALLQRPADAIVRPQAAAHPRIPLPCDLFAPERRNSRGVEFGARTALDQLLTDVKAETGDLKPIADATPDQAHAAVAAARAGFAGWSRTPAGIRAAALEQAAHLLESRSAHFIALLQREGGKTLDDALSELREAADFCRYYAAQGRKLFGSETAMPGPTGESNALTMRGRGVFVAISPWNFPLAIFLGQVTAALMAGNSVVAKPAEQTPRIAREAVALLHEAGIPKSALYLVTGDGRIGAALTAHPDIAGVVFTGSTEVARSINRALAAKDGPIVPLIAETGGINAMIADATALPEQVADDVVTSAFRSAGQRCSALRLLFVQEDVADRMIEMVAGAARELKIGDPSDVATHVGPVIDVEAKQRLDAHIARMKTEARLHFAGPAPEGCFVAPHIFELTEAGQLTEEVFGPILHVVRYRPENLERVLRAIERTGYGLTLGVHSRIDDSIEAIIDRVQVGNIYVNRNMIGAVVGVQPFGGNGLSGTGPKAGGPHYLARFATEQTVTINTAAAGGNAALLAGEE
The experiment in a line: steady-state GSALDH kinetics (NADH formation at […] nm), global fit to competitive inhibition. It counts as biochemical.

The target in data set [2] is T2, Proline utilization A (BjPutA) (Bradyrhizobium diazoefficiens, UniProt Q89E26, C792A).
T2 construct: gene putA; BjPutA C792A; 1949 of 2002 expected residues modeled in the asymmetric unit (dimer)
T2 sequence (Q89E26 1-999 C792A): T1 sequence (Q89E26 1-999 R456M)
The experiment in a line: X-ray crystal structure, […] Å, crystals soaked in […] L-proline. It counts as binding.

Data set [3] relates to T3, NC(CCC=O)C(=O)O.
T3 construct: BjPutA R456M mutant (GSALDH activity measured)
Kind of data set: purified protein. It counts as biochemical, Bradyrhizobium diazoefficiens. Conditions: NAD+ GSAL site of the GSALDH active site.

pKi: −log10 of the molar value.

In data set [1], `O=C(O)[C@@H]1CCCN1` [L-proline] had a negative-log Ki (pKi) of 1.33. Moreover, in data set [2], the “X-ray crystal structure, 2.15 Å, crystals soaked in 2 M L-proline” value was “The carboxylate group interacts with Arg791, Ser793, and the backbone amine groups of Gly946 and Ala947”.

Turning to “Proline utilization A (BjPutA) (Bradyrhizobium diazoefficiens USDA 110; R456M)”, the Michaelis constant (Km) in data set [3] came out at 2400 µM.

What is called pKi is −log10 of the Ki, conventionally taken in molar units. As usually defined, the Km is the substrate concentration at which the rate is half of its maximum.
